Experiments:
[1] = target: T1, α7 nicotinic acetylcholine receptor (α7 nAChR) (Homo sapiens, UniProt P36544); test: two-electrode voltage clamp in Xenopus oocytes; assay type: cell-based
[2] = target: T1, α7 nicotinic acetylcholine receptor (α7 nAChR); test: two-electrode voltage clamp in Xenopus oocytes; assay type: cell-based; remark: listed apart in the source

T1 sequence (P36544 23-502): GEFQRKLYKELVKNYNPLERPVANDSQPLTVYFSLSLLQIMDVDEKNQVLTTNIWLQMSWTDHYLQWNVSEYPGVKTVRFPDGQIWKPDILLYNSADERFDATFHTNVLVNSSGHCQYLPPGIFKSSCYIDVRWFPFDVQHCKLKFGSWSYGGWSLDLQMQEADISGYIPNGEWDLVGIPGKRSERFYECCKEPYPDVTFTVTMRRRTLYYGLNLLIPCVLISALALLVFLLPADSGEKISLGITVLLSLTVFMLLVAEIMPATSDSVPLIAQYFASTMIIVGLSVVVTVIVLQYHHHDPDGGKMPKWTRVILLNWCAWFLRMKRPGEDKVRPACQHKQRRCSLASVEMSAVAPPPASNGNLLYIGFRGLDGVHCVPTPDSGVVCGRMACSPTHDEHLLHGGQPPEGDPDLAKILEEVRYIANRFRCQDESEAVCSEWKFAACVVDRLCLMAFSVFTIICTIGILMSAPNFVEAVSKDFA

O=c1c(O)c(-c2ccc(O)c(O)c2)oc2cc(O)cc(O)c12 [Que, quercetin]
EC50 [1]: 35.1 ± 3.8 µM

C[C@@H]1O[C@@H](OC[C@H]2O[C@@H](Oc3c(-c4ccc(O)c(O)c4)oc4cc(O)cc(O)c4c3=O)[C@H](O)[C@@H](O)[C@@H]2O)[C@H](O)[C@H](O)[C@H]1O [Rutin, quercetin-3-O-rutinoside]
IC50 [2]: 70.4 ± 3.6 µM
